Assay results from patent US6576628B1, “3-aryl-succinamido-hydroxamic acids, methods for producing said acids and medicaments containing the same” (Roche Diagnostics GmbH, priority 1997, dated 2003).

How the values were obtained:
Type in all cases: biochemical
[1] = target: T1, catalytic domain (Met80-Gly242) of the human neutrophilic collagenase (MMP8) (Homo sapiens, UniProt P22894); assay: MMP8 (HNC) catalytic domain fluorogenic substrate inhibition assay; details: 8 nM catalytic domain, 10 μM DNP-heptapeptide substrate, 25° C., pH 7.6
T1 construct: catalytic domain (Met80-Gly242) of the human neutrophilic collagenase (MMP8); made in house
Experimental: 50 mM Tris/HCl pH 7.6 (Tris=Tris-(hydroxymethyl)-aminomethane)
100 mM NaCl/10 mM CaCl2/5% MeOH (if required)
8 nM catalytic domain (Met80-Gly242) of the human neutrophilic collagenase (MMP8)

MMP1 = target: T2, MMP1 (Homo sapiens, UniProt P03956); assay: MMP1 inhibition assay in analogy to HNC (MMP8) assay; details: for inhibition at 0.2 µM: inhibitor at 200 nM, activated MMP1
T2 sequence (P03956 100-469): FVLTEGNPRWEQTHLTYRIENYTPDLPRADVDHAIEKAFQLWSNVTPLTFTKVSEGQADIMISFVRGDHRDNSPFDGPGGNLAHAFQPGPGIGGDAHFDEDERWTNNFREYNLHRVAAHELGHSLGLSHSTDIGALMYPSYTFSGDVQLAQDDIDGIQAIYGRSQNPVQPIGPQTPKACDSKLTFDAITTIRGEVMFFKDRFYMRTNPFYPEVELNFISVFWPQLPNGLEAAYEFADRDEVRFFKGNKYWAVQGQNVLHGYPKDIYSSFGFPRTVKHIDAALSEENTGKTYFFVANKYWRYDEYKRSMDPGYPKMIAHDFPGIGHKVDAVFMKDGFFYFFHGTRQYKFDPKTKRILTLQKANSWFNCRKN
Experimental: In order to determine the inhibitory potential of compounds of the general formula I on MMPs such as HNC, the catalytic domain is incubated (isolation and purification see Schnierer, S., Kleine, T., Gote, T., Hillemann, A., Knäuper, V., Tschesche, H., Biochem. Biophys. Res. Commun. (1993), 191, 319-326). Subsequently the initial reaction rate of a standard substrate is measured as described in Grams F. et al., FEBS 335 (1993) 76-80). The results are evaluated in the usual manner (see e.g. Dixon, M., Biochem. J. (1953) 55, 170-202).
The synthetic collagenase substrate is a heptapeptide coupled C-terminally with dinitrophenol (DNP). This DNP residue quenches the fluorescence of the Trp of the heptapeptide. After cleavage of a tripeptide containing the DNP residue, the measurable fluorescence increases.
A solution of enzyme and inhibitor is prepared in assay buffer at 25° C. The reaction is started by addition of the substrate to the solution. The cleavage of the fluorogenic substrate is measured by fluorescence spectroscopy (excitation and emission wavelength at 280 and 350 nm respectively). The IC50 value is determined for an inhibitor concentration at which the reaction rate is halved.
An activation is additionally necessary for MMP2 and MMP1.

MMP2 = target: T3, MMP2 (Homo sapiens, UniProt P08253); assay: MMP2 inhibition assay in analogy to HNC (MMP8) assay; details: activated MMP2; other concentrations than MMP8 assay
T3 sequence (P08253 110-660): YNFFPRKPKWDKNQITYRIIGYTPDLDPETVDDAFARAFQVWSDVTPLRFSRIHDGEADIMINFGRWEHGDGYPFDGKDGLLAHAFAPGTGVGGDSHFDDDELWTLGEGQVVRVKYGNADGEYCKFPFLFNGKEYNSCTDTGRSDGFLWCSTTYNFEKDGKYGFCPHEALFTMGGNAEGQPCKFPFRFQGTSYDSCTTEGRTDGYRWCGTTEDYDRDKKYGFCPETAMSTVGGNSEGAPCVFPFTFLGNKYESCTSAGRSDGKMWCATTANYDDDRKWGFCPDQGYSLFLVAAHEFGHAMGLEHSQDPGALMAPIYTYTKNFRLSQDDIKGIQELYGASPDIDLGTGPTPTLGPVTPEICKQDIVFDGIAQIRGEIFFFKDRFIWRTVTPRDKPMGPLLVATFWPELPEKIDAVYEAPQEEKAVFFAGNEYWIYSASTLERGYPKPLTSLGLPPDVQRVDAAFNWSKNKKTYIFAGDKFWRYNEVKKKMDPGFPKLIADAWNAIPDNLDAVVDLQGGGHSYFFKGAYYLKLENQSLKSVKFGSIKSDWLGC

T1 sequence (P22894 100-262): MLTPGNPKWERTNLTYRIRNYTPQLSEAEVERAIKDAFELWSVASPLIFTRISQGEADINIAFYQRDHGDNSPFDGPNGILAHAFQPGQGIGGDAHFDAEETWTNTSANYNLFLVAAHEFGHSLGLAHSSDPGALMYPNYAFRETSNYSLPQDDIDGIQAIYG

IC50 [1] [nM] | inhibition of MMP1 compared with Marimastat (in words) (MMP1) | inhibition at 0.2 µM (MMP1) [%] | IC50 (MMP2) [nM] | SMILES | selectivity relative to MMP1 (in words) (MMP1; compared with Marimastat, MMP2/MMP8 versus MMP1)
18 | substantially poorer than by Marimastat | 20 | 23 | CNC(=O)[C@@H](NC(=O)C(c1ccc(-c2ccccc2)cc1)C(O)C(=O)NO)C(C)(C)C (mixture of isomers) [example 1.5, 2-Biphenyl-4-yl-N1-((1S)-2,2-dimethyl-1-methyl-carbamoyl-propyl)-3,N4-dihydroxy-succinamide] | clear selectivity advantage relative to MMP1
– | – | 100 | – | CNC(=O)[C@@H](NC(=O)[C@H](CC(C)C)[C@H](O)C(=O)NO)C(C)(C)C [Marimastat, N2-[3S-hydroxy-4-(N-hydroxyamino)-2R-isobutyl-succinyl)-L-tert-leucine-N1-methylamide, reference compound] | –
